Usually IC50 stands for the concentration needed to halve the response being measured.

The source of these data is patent US12240862B2, “Inhibitors of peptidylarginine deiminases” (Gilead Sciences, Inc., priority 2020, dated 2025).

T1 sequence (Q9UM07 2-663): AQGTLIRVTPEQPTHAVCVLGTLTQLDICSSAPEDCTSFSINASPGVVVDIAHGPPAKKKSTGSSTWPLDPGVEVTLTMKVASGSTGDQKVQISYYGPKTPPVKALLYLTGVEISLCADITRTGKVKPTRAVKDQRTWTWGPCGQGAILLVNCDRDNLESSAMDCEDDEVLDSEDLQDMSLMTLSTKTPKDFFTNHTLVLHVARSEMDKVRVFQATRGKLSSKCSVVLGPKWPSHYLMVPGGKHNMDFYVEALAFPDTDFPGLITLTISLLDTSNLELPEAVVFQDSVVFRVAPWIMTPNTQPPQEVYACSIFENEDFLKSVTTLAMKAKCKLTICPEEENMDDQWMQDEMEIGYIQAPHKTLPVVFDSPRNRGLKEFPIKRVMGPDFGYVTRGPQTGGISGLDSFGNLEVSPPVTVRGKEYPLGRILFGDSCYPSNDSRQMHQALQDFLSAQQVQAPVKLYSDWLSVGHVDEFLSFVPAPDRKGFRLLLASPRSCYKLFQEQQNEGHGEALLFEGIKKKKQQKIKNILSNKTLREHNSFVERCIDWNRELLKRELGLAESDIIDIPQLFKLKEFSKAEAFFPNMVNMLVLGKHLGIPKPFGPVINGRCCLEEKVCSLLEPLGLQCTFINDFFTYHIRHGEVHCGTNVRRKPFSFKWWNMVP

This assay has as its target T1, human PAD4 (Homo sapiens, UniProt Q9UM07).
T1 construct: human PAD4 (NM_012387), A2P663, was PCR amplified; His-SUMO (N, cleaved yes); made in house; host or cells: E. coli BL21(DE3)
Kind of assay: In vitro PAD4 BAEE biochemical assay. The conditions noted are these: human PAD4, BAEE substrate; 5 nM PAD4, 2 mM calcium chloride, 3 mM BAEE; geometric mean of multiple experiments. Summed up:
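Ammonia generated from BAEE serves as the readout, measured by o-phthalaldehyde after EDTA termination. Final conditions: 5 nM human PAD4 (SUMO tag cleaved), 2 mM CaCl2, 3 mM BAEE, pH 7.6 MOPS buffer, 25 °C for 2 h following a 30-min compound preincubation.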
As to `COc1cc(C(=O)N2C[C@H]3CCCN[C@H]3C2)cc2nc(-c3cc4ccc([C@@H](C)NC(=O)c5ccccc5)nc4n3CC3CC3)c(C)n12` [Example 58, ~{N}-[(1~{R})-1-[2-[7-[(4~{a}~{R}, 7~{a}~{R})-1,2,3,4,4~{a},5,7,7~{a}-octahydropyrrolo[3,4-b]pyridine-6-carbonyl]-5-methoxy-3-methylimidazo[1,2-a]pyridin-2-yl]-1-(cyclopropylmethyl)pyrrolo[2,3-b]pyridin-6-yl]ethyl]benzamide], the IC50 was found to be 0.771 µM.
As to `COc1cc(C(=O)N2[C@H]3CC[C@@H]2[C@H](N)C3)cc2nc(-c3cc4ccc([C@@H](C)NC(=O)CC(C)(C)OC)nc4n3CC3CC3)c(C)n12` [Example 39, ~{N}-[(1~{R})-1-[2-[7-[(1~{R},2~{R},4~{S})-2-amino-7-azabicyclo[2.2.1]heptane-7-carbonyl]-5-methoxy-3-methylimidazo[1,2-a]pyridin-2-yl]-1-(cyclopropylmethyl)pyrrolo[2,3-b]pyridin-6-yl]ethyl]-3-methoxy-3-methylbutanamide], the half-inhibitory concentration (IC50) came to 0.0862 µM.
Turning to `COc1cc(C(=O)N2C[C@H](N)CCN2C)cc2nc(-c3cc4ccc([C@@H](C)NC(=O)C56CC(F)(C5)C6)nc4n3CC3CC3)c(C)n12` [Example 615, N—((R)-1-(2-(7-((R)-5-amino-2-methylhexahydropyridazine-1-carbonyl)-5-methoxy-3-methylimidazo[1,2-a]pyridin-2-yl)-1-(cyclopropylmethyl)-1H-pyrrolo[2,3-b]pyridin-6-yl)ethyl)-3-fluorobicyclo[1.1.1]pentane-1-carboxamide], the IC50 was found to be 0.0696 µM.
With `COc1cc(C(=O)N2[C@H]3CC[C@@H]2[C@H](N)C3)cc2nc(-c3cc4ccc([C@@H](C)NC(=O)N5CC(OC(F)(F)F)C5)nc4n3CC3CC3)c(C)n12` [Example 202, ~{N}-[(1~{R})-1-[2-[7-[(1~{R},2~{R},4~{S})-2-amino-7-azabicyclo[2.2.1]heptane-7-carbonyl]-5-methoxy-3-methylimidazo [1,2-a]pyridin-2-yl]-1-(cyclopropylmethyl)pyrrolo [2,3-b]pyridin-6-yl]ethyl]-3-(trifluoromethoxy)azetidine-1-carboxamide], the IC50 is 0.052 µM.
In the case of `COc1cc(C(=O)N2[C@H]3CC[C@@H]2[C@H](N)C3)cc2nc(-c3cc4ccc([C@@H](C)NC(=O)C5CC6(CC6)C5)nc4n3CC3CC3)c(C)n12` [Example 55, ~{N}-[(1~{R})-1-[2-[7-[(1~{R},2~{R},4~{S})-2-amino-7-azabicyclo [2.2.1]heptane-7-carbonyl]-5-methoxy-3-methylimidazo [1,2-a]pyridin-2-yl]-1-(cyclopropylmethyl)pyrrolo[2,3-b]pyridin-6-yl]ethyl] spiro[2.3]hexane-5-carboxamide], the IC50 came out at 0.0526 µM.
Turning to `COc1cc(C(=O)N2[C@H]3CC[C@@H]2[C@H](N)C3)cc2nc(-c3cc4ccc(N(C5CCC5)S(C)(=O)=O)nc4n3CC3CC3)c(C)n12` [Example 477, ~{N}-[2-[7-[(1~{R}, 2~{R},4~{S})-2-amino-7-azabicyclo[2.2.1]heptane-7-carbonyl]-5-methoxy-3-methylimidazo[1,2-a]pyridin-2-yl]-1-(cyclopropylmethyl)pyrrolo [2,3-b]pyridin-6-yl]-~{N}-cyclobutylmethane-sulfonamide], the concentration for half-maximal inhibition (IC50) came to 0.1 µM.
Regarding “(2~{S})-2-[2-[7-[(3~{R})-3- aminopiperidine-1- carbonyl]-5-methoxy-3- methylimidazo[1,2- a]pyridin-2-yl]-1- (cyclopropylmethyl)pyrrolo [2,3-b]pyridin-6-yl] oxy-~{N}- methylpropanamide [Example 630]”, the IC50 was 9.4 µM.
Consider `COc1cc(C(=O)N2CCC[C@@H](N)C2)cc2nc(-c3cc4ccc(N(C(F)F)S(=O)(=O)C5COC5)nc4n3CC3CC3)c(C)n12` [Example 478, ~{N}-[2-[7-[(3~{R})-3-aminopiperidine-1-carbonyl]-5-methoxy-3-methylimidazo[1,2-a]pyridin-2-yl]-1-(cyclopropylmethyl)pyrrolo [2,3-b]pyridin-6-yl]-~{N}-(difluoromethyl)oxetane-3-sulfonamide], for which the IC50 was found to be 0.236 µM.
On to `COc1cc(C(=O)N2[C@H]3CC[C@@H]2[C@H](N)C3)cc2nc(-c3cc4ccc([C@@H](C)NC(=O)c5cccn(C)c5=O)nc4n3CC3CC3)c(C)n12` [Example 30, ~{N}-[(1~{R})-1-[2-[7-[(1~{R}, 2~{R},4~{S})-2-amino-7-azabicyclo [2.2.1]heptane-7-carbonyl]-5-methoxy-3-methylimidazo [1,2-a]pyridin-2-yl]-1-(cyclopropylmethyl)pyrrolo[2,3-b]pyridin-6-yl]ethyl]-1-methyl-2-oxopyridine-3-carboxamide], for which the concentration for half-maximal inhibition (IC50) came to 0.0824 µM.
As to `COc1cc(C(=O)N2[C@H]3CC[C@@H]2[C@H](N)C3)cc2nc(-c3cc4ccc(N(C(F)F)S(C)(=O)=O)nc4n3CC3CC3)c(CC(C)C)n12` [Example 429, ~{N}-[2-[7-[(1~{R},2~{R}, 4~{S})-2-amino-7-azabicyclo[2.2.1]heptane-7-carbonyl]-5-methoxy-3-(2-methylpropyl)imidazo[1,2-a]pyridin-2-yl]-1-(cyclopropylmethyl)pyrrolo [2,3-b]pyridin-6-yl]-~{N}-(difluoromethyl) methanesulfonamide], the IC50 is 0.851 µM.
In the case of `COc1cc(C(=O)N2[C@H]3CC[C@@H]2[C@H](N)C3)cc2nc(-c3cc4ccc([C@@H](C)NC(=O)c5cn(C)nn5)nc4n3CC3CC3)c(C)n12` [Example 1, ~{N}-[(1~{R})-1-[2-[7-[(1~{R},2~{R},4~{S})-2-amino-7-azabicyclo[2.2.1]heptane-7-carbonyl]-5-methoxy-3-methylimidazo [1,2-a]pyridin-2-yl]-1-(cyclopropylmethyl)pyrrolo [2,3-b]pyridin-6-yl]ethyl]-1-methyltriazole-4-carboxamide], the IC50 was found to be 0.0857 µM.
As to `COc1cc(C(=O)N2[C@H]3CC[C@@H]2[C@H](N)C3)cc2nc(-c3cc4ccc([C@@H](C)NC(=O)C5(C)CC(F)(F)C5)nc4n3CC3CC3)c(C)n12` [Example 84, ~{N}-[(1~{R})-1-[2-[7-[(1~{R},2~{R},4~{S})-2-amino-7-azabicyclo[2.2.1]heptane-7-carbonyl]-5-methoxy-3-methylimidazo [1,2-a]pyridin-2-yl]-1-(cyclopropylmethyl)pyrrolo [2,3-b]pyridin-6-yl]ethyl]-3,3-difluoro-1-methylcyclobutane-1-carboxamide], the IC50 was determined as 0.0597 µM.
For the compound `CCc1c(-c2cc3ccc(N(C(F)F)S(C)(=O)=O)nc3n2CC2CC2)nc2cc(C(=O)N3CCC[C@@H](N)C3)cc(OC)n12` [Example 399, ~{N}-[2-[7-[(3~{R})-3-aminopiperidine-1-carbonyl]-3-ethyl-5-methoxyimidazo[1,2-a]pyridin-2-yl]-1-(cyclopropylmethyl)pyrrolo [2,3-b]pyridin-6-yl]-~{N}-(difluoromethyl) methanesulfonamide], the IC50 worked out at 0.285 µM.
In the case of `COc1cc(C(=O)N2C[C@H]3CC(F)[C@@H]2[C@@H]3N)cc2nc(-c3cc4ccc(N(C(F)F)S(C)(=O)=O)nc4n3CC3CC3)c(C)n12` (stereo partly drawn) [Example 361, N-[2-[7-[(1S,4R,7R)-7-amino-6-fluoro-2-azabicyclo[2.2.1]heptane-2-carbonyl]-5-methoxy-3-methyl-imidazo[1,2-a]pyridin-2-yl]-1-(cyclopropylmethyl)pyrrolo [2,3-b]pyridin-6-yl]-N-(difluoromethyl) methanesulfonamide], the IC50 turned out to be 0.258 µM.
Next, `COc1cc(C(=O)N[C@H]2CNC[C@H](F)C2)cc2nc(-c3cc4ccc(N(C(F)F)S(C)(=O)=O)nc4n3CC3CC3)c(C)n12` [Example 306, 2-[1-(cyclopropylmethyl)-6-[difluoromethyl (methylsulfonyl)amino]pyrrolo[2,3-b]pyridin-2-yl]-~{N}-[(3~{R},5~{R})-5-fluoropiperidin-3-yl]-5-methoxy-3-methylimidazo [1,2-a]pyridine-7-carboxamide]: 1.61 µM; `COc1cc(C(=O)N2[C@H]3CC[C@@H]2[C@H](N)C3)cc2nc(-c3cc4ccc([C@@H](C)NC(=O)CC5(OC)CCC5)nc4n3CC3CC3)c(C)n12` [Example 32, ~{N}-[(1~{R})-1-[2-[7-[(1~{R},2~{R},4~{S})-2-amino-7-azabicyclo [2.2.1]heptane-7-carbonyl]-5-methoxy-3-methylimidazo[1,2-a]pyridin-2-yl]-1-(cyclopropylmethyl)pyrrolo[2,3-b]pyridin-6-yl]ethyl]-2-(1-methoxycyclobutyl) acetamide]: 0.083 µM; `COc1cc(C(=O)N2[C@H]3CC[C@@H]2[C@H](N)C3)cc2nc(-c3cc4ccc(C5CCCCN5C(=O)N5CCCC5)nc4n3CC3CC3)c(C)n12` (stereo partly shown) [Example 544, [(1~{R},2~{R},4~{S})-2-amino-7-azabicyclo [2.2.1]heptan-7-yl]-[2-[1-(cyclopropylmethyl)-6-[1-(pyrrolidine-1-carbonyl)piperidin-2-yl]pyrrolo [2,3-b]pyridin-2-yl]-5-methoxy-3-methylimidazo [1,2-a]pyridin-7-yl] methanone]: 0.361 µM.
The same measure for `COc1cc(C(=O)N2C[C@H](N)C[C@@H]2C)cc2nc(-c3cc4ccc(N(C(F)F)S(C)(=O)=O)nc4n3CC3CC3)c(C)n12` [Example 354, N-[2-[7-[(2S,4R)-4-amino-2-methyl-pyrrolidine-1-carbonyl]-5-methoxy-3-methyl-imidazo[1,2-a]pyridin-2-yl]-1-(cyclopropylmethyl)pyrrolo[2,3-b]pyridin-6-yl]-N-(difluoromethyl) methanesulfonamide]: 1.89 µM.
On to `COc1cc(C(=O)N2[C@H]3CC[C@@H]2[C@H](N)C3)cc2nc(-c3cc4ccc(C5CCN(C(=O)N6CCCC6)CC5)nc4n3CC3CC3)c(C)n12` [Example 525, [(1~{R},2~{R},4~{S})-2-amino-7-azabicyclo [2.2.1]heptan-7-yl]-[2-[1-(cyclopropylmethyl)-6-[1-(pyrrolidine-1-carbonyl)piperidin-4-yl]pyrrolo [2,3-b]pyridin-2-yl]-5-methoxy-3-methylimidazo [1,2-a]pyridin-7-yl]methanone], for which the IC50 was 0.228 µM.
